# Experimental data published in paper PMC4515785 (Journal of Medicinal Chemistry, 2015).
# Marks after values point to notes of the source that are not given here.
# Tests used:
# T. brucei = details: read-out: T. brucei EC50; previously reported quinazoline analogs; cited from earlier work
# plasma protein binding = assay type: in vitro ADME
# [1] = system: T. cruzi Tulahuen strain expressing β-galactosidase; test: Trypanosoma cruzi intracellular amastigote assay in 3T3 cells; assay type: cell-based; details: for T. cruzi EC50 / EC50: intracellular amastigotes in 3T3 cells, 96 h; for EC50: read-out: T. cruzi EC50
# [2] = Human liver microsomes intrinsic clearance; assay type: in vitro ADME
# [3] = male rat hepatocytes intrinsic clearance; assay type: in vitro ADME
# L. major promastigotes = test: Leishmania major promastigote assay; assay type: cell-based; details: for EC50: read-out: L. major EC50 Promast
# P. falciparum D6 = test: Plasmodium falciparum SYBR Green fluorescence; assay type: cell-based; details: D6, drug sensitive strain; for EC50: read-out: P. falciparum D6 EC50
# HepG2 cells = test: HepG2 toxicity assay; assay type: cell-based; details: 48 h, MTT
compound,measurement,setting,value
CN1CCCN(S(=O)(=O)c2ccc(-c3ccc4ncnc(Nc5ccc(OCc6cccc(F)c6)c(Cl)c5)c4c3)cc2)CC1 [compound 4],EC50,T. brucei,810 nM
"CN1CCCN(S(=O)(=O)c2ccc(-c3ccc4ncc(C#N)c(Nc5ccc(OCc6cccc(F)c6)c(Cl)c5)c4c3)cc2)CC1 [compound 83, 4-((3-Chloro-4-((3-fluorobenzyl)oxy)phenyl)amino)-6-(4-((4-methyl-1,4-diazepan-1-yl)sulfonyl)phenyl)quinoline-3-carbonitrile]",plasma protein binding (% free),plasma protein binding,<1 % free
same,fold increase in T. cruzi potency over matched des-fluoro analog,[1]; 83 vs 84,10 fold
same,fold improvement in T. cruzi potency over matched quinazoline analog 4,[1]; vs 4,5 fold
same,microsomal CLint,[2],152 µL/min/mg
"CN1CCCN(S(=O)(=O)c2ccc(-c3ccc4ccnc(Nc5ccc(OCc6cccc(F)c6)c(Cl)c5)c4c3)cc2)CC1 [compound 59, N-(3-Chloro-4-((3-fluorobenzyl)oxy)phenyl)-7-(4-((4-methyl-1,4-diazepan-1-yl)sulfonyl)phenyl)isoquinolin-1-amine]",fold less potent against T. cruzi,[1]; compared with the quinazoline 4,10 fold
Fc1cccc(COc2ccc(Nc3ncnc4ccc(-c5cccc(N6CCOCC6)c5)cc34)cc2Cl)c1 [compound 1],plasma protein binding (% free),plasma protein binding,<1 % free
same,hepatocyte CLint,[3],44.5 µL/min/1e6 cells
same,microsomal CLint,[2],63 µL/min/mg
"CN1CCCN(S(=O)(=O)c2ccc(-c3ccc4c(Nc5ccc(OCc6cccc(F)c6)c(Cl)c5)ccnc4c3)cc2)CC1 [compound 52, N-(3-Chloro-4-((3-fluorobenzyl)oxy)phenyl)-7-(4-((4-methyl-1,4-diazepan-1-yl)sulfonyl)phenyl)quinolin-4-amine]",T. cruzi EC50,[1],submicromolar potency
"O=S(=O)(c1ccc(-c2ccc3ccnc(Nc4ccc(OCc5ccccc5)c(Cl)c4)c3c2)cc1)N1CCOCC1 [compound 55, N-(4-(Benzyloxy)-3-chlorophenyl)-7-(4-(morpholinosulfonyl)phenyl)isoquinolin-1-amine]",L. major EC50 Promast,L. major promastigotes,complete loss in activity
"CN1CCCN(S(=O)(=O)c2ccc(-c3ccc4nccc(Nc5ccc(OCc6cccc(F)c6)c(Cl)c5)c4c3)cc2)CC1 [compound 51, N-(3-Chloro-4-((3-fluorobenzyl)oxy)phenyl)-6-(4-((4-methyl-1,4-diazepan-1-yl)sulfonyl)phenyl)quinolin-4-amine]",T. cruzi EC50,[1],submicromolar potency
"N-(3-Chloro-4-((3-fluorobenzyl)oxy)phenyl)-6-(4-((4-methylpiperazin-1-yl)sulfonyl)phenyl)thieno[3,2-d]pyrimidin-4-amine [compound 89]",EC50,L. major promastigotes,3.4 µM
same,EC50,P. falciparum D6,21 nM
same,HepG2 TC50,HepG2 cells,>15 µM
same,EC50,[1],5.5 µM
"CN1CCN(S(=O)(=O)c2ccc(-c3ccc4c(Nc5ccc(OCc6cccc(F)c6)c(Cl)c5)ccnc4c3)cc2)CC1 [compound 50, N-(3-Chloro-4-((3-fluorobenzyl)oxy)phenyl)-7-(4-((4-methylpiperazin-1-yl)sulfonyl)phenyl)quinolin-4-amine]",plasma protein binding (% free),plasma protein binding,<1 % free
same,T. cruzi EC50,[1],submicromolar potency
same,microsomal CLint,[2],143 µL/min/mg
"N-(3-Chloro-4-((3-fluorobenzyl)oxy)phenyl)-6-(4-((4-methyl-1,4-diazepan-1-yl)sulfonyl)phenyl)thieno[3,2-d]pyrimidin-4-amine [compound 91]",HepG2 TC50,HepG2 cells,>15 µM
same,EC50,[1],> 50 µM
CN1CCN(S(=O)(=O)c2ccc(-c3ccc4ncnc(Nc5ccc(OCc6cccc(F)c6)c(Cl)c5)c4c3)cc2)CC1 [compound 5],EC50,T. brucei,530 nM
"N-(4-(Benzyloxy)-3-chlorophenyl)-6-(4-(morpholinosulfonyl)phenyl)thieno[2,3-d]pyrimidin-4-amine [compound 88]",EC50,L. major promastigotes,> 15 µM
same,EC50,P. falciparum D6,220 nM
same,HepG2 TC50,HepG2 cells,>15 µM
same,EC50,[1],> 50 µM
"N-(4-(Benzyloxy)-3-chlorophenyl)-6-(4-(morpholinosulfonyl)phenyl)thieno[3,2-d]pyrimidin-4-amine [compound 87]",EC50,L. major promastigotes,> 3 µM
same,EC50,P. falciparum D6,620 nM
same,HepG2 TC50,HepG2 cells,>5 µM
same,EC50,[1],> 50 µM
"CN1CCCN(S(=O)(=O)c2ccc(-c3ccc4c(Nc5ccc(OCc6cccc(F)c6)c(Cl)c5)nncc4c3)cc2)CC1 [compound 76, N-(3-Chloro-4-((3-fluorobenzyl)oxy)phenyl)-6-(4-((4-methyl-1,4-diazepan-1-yl)sulfonyl)phenyl)phthalazin-1-amine]",P. falciparum D6 EC50,P. falciparum D6,equipotent to 5
"N-(3-Chloro-4-((3-fluorobenzyl)oxy)phenyl)-6-(4-((4-methylpiperazin-1-yl)sulfonyl)phenyl)thieno[2,3-d]pyrimidin-4-amine [compound 90]",EC50,L. major promastigotes,> 15 µM
same,EC50,P. falciparum D6,43 nM
same,HepG2 TC50,HepG2 cells,>15 µM
same,EC50,[1],48 µM
"N-(3-Chloro-4-((3-fluorobenzyl)oxy)phenyl)-6-(3-morpholinophenyl)thieno[2,3-d]pyrimidin-4-amine [compound 86]",EC50,L. major promastigotes,> 15 µM
same,EC50,P. falciparum D6,520 nM
same,HepG2 TC50,HepG2 cells,>15 µM
same,EC50,[1],2.2 µM
"N-(3-Chloro-4-((3-fluorobenzyl)oxy)phenyl)-6-(4-((4-methyl-1,4-diazepan-1-yl)sulfonyl)phenyl)thieno[2,3-d]pyrimidin-4-amine [compound 92]",HepG2 TC50,HepG2 cells,>15 µM
same,EC50,[1],15 µM
"CN1CCN(S(=O)(=O)c2ccc(-c3ccc4nccc(Nc5ccc(OCc6cccc(F)c6)c(Cl)c5)c4c3)cc2)CC1 [compound 49, N-(3-Chloro-4-((3-fluorobenzyl)oxy)phenyl)-6-(4-((4-methylpiperazin-1-yl)sulfonyl)phenyl)quinolin-4-amine]",P. falciparum D6 EC50,P. falciparum D6,complete loss in activity
"O=S(=O)(c1ccc(-c2ccc3nccc(Nc4ccc(OCc5ccccc5)c(Cl)c4)c3c2)cc1)N1CCOCC1 [compound 47, N-(4-(Benzyloxy)-3-chlorophenyl)-6-(4-(morpholinosulfonyl)phenyl)quinolin-4-amine]",plasma protein binding (% free),plasma protein binding,<1 % free
same,microsomal CLint,[2],78.9 µL/min/mg
"N-(3-Chloro-4-((3-fluorobenzyl)oxy)phenyl)-6-(3-morpholinophenyl)thieno[3,2-d]pyrimidin-4-amine [compound 85]",EC50,L. major promastigotes,> 15 µM
same,EC50,P. falciparum D6,860 nM
same,HepG2 TC50,HepG2 cells,>15 µM
same,EC50,[1],> 50 µM
O=S(=O)(c1ccc(-c2ccc3ncnc(Nc4ccc(OCc5ccccc5)c(Cl)c4)c3c2)cc1)N1CCOCC1 [compound 3],T. cruzi % inh at 10 μM,[1]; 10 μM,(9.5)* %
"CN1CCCN(S(=O)(=O)c2ccc(-c3ccc4c(Nc5ccc(OCc6cccc(F)c6)c(Cl)c5)cnnc4c3)cc2)CC1 [compound 68, N-(3-Chloro-4-((3-fluorobenzyl)oxy)phenyl)-7-(4-((4-methyl-1,4-diazepan-1-yl)sulfonyl)phenyl)cinnolin-4-amine]",plasma protein binding (% free),plasma protein binding,<1 % free
same,microsomal CLint,[2],99.3 µL/min/mg
